Reference: PubChem BioAssay (NCI)
Where “and” joins values, the source holds several entries; their conditions need not be identical. Equal entries are not always repeated.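 Briefly, cells in 96-well plates were exposed to five compound concentrations for 48 h, and endpoints were estimated by linear interpolation. Here, GI50 denotes the concentration required for 50% inhibition of growth. Definition used: TGI = concentration required for complete inhibition of growth.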 Where a SMILES comes first, the peptide text is derived from it. [ ]: non-standard residue; d: D form. The star is where a group is joined. ξ: configuration not given here. NMeY = CN[C@@H](Cc1ccc(O)cc1)C(=O)O; Cbz = O=C(OCc1ccccc1)*; ξA = CC(N)C(=O)O

Tests used:
Test in all cases: inhibition of tumour cell growth, NCI panel, 48 h
LOX IMVI melanoma = system: LOX IMVI melanoma
NCI-H522 lung = system: NCI-H522 lung
MCF7 breast = system: MCF7 breast
SW-620 colon = system: SW-620 colon
RPMI-8226 leukemia = system: RPMI-8226 leukemia
OVCAR-8 ovarian = system: OVCAR-8 ovarian
HT29 colon = system: HT29 colon
U251 CNS = system: U251 CNS
786-0 renal = system: 786-0 renal
ACHN renal = system: ACHN renal

SMILES	TGI (LOX IMVI melanoma)	TGI (NCI-H522 lung)	TGI (MCF7 breast)	TGI (SW-620 colon)	TGI (RPMI-8226 leukemia)	TGI (OVCAR-8 ovarian)	TGI (HT29 colon) [µM]	TGI (U251 CNS)	TGI (786-0 renal)	TGI (ACHN renal)	GI50 (NCI-H522 lung)	GI50 (SW-620 colon)	GI50 (RPMI-8226 leukemia)	GI50 (HT29 colon)	GI50 (U251 CNS)	GI50 (LOX IMVI melanoma) [µM]	GI50 (OVCAR-8 ovarian) [µM]	GI50 (ACHN renal) [µM]	GI50 (MCF7 breast)
CCCCC[C@H](O)[C@H](C)C=C1SCCCS1	> 100 µM	> 100 µM	> 100 µM	> 100 µM	> 100 µM	> 100 µM	> 100	> 100 µM	> 100 µM	> 100 µM	–	–	–	–	–	–	–	–	–
COc1cn2c(cc1=O)COc1ccc(-c3ccccc3)cc1-2	> 85.5 µM	> 100 µM	> 100 µM	> 100 µM	> 100 µM	> 100 µM	> 100	> 100 µM	> 100 µM	> 100 µM	–	–	–	–	–	–	–	–	–
O=C1c2ccccc2NC2C(O)c3ccccc3N12 (stereo unspecified)	> 100 µM	> 100 µM	> 100 µM	> 100 µM	54.3 µM	> 100 µM	> 100	> 100 µM	> 100 µM	> 100 µM	–	–	–	–	–	–	–	–	–
CC(=O)Oc1ccc2cc(Oc3ccc(Cl)cc3)c(=O)oc2c1	> 100 µM	89.6 µM	> 100 µM	> 100 µM	> 100 µM	54 µM	> 100	> 100 µM	> 100 µM	> 100 µM	–	–	–	–	–	–	–	–	–
Cc1cc(S(=O)(=O)Nc2n[nH]c(Nc3ccccc3)n2)c(S)cc1Cl	> 10 µM	> 10 µM	> 10 µM	> 10 µM	> 10 µM	> 10 µM	> 10	> 10 µM	> 10 µM	> 10 µM	–	–	–	–	–	–	–	–	–
OC(CC(c1ccccc1)c1ccc(Cl)cc1)c1ccc(Cl)cc1 (stereo unspecified)	77.2 µM	69.1 µM	86.2 µM	> 100 µM	70 µM	> 100 µM	> 100	> 100 µM	> 100 µM	77.6 µM	–	–	–	–	–	–	–	–	–
COc1cc2c3c(n(CCCNCCO)c(=O)c2cc1OC)-c1cc2c(cc1C3=O)OCO2	0.169 µM	0.966 µM and 3.8 µM	0.155 µM and 0.113 µM	2.6 µM and 2.03 µM	> 100 µM	5.34 µM	0.589	1.09 µM and 1.62 µM	0.118 µM and 0.0216 µM	0.176 µM and 0.369 µM	0.0144 µM	0.0228 µM	0.173 µM	0.0502 µM	0.0191 µM and < 0.0383 µM	–	–	–	–
O=C(Nc1cccc2nsnc12)c1cc2c(cc1Cl)Sc1nccn1S2(=O)=O	> 63.8 µM	32.3 µM	3.4 µM	> 60.7 µM	4.96 µM	8.94 µM	7.67	17.6 µM	32 µM	35.9 µM	–	–	–	–	–	–	–	–	–
O=C(C[C@@H]1NCCC[C@H]1O)Cn1cnc2cc(Br)c(Cl)cc2c1=O	0.0268 µM	0.169 µM	20.3 µM	0.209 µM	0.128 µM	0.125 µM	0.191	0.256 µM	0.135 µM	1.21 µM	–	–	–	–	–	–	–	–	–
COc1ccc(C[C@@H](C(=O)NCC(N)=O)N(C)C(=O)[C@@H]2CCCN2C(=O)[C@H](CC(C)C)NC(=O)C(C)NC(=O)OCc2ccccc2)cc1 (stereo partly specified) (Cbz-[ξA]LP[NMeY](Me)G-NH2)	> 100 µM	> 100 µM	> 100 µM	> 100 µM	> 100 µM	> 100 µM	> 100	> 100 µM	> 100 µM	> 100 µM	–	–	–	–	–	–	–	–	–
COc1ccc(/C=N/Nc2[nH]c(=S)nc3[nH]ncc23)cc1	> 100 µM	79.9 µM	> 100 µM	> 100 µM	> 100 µM	> 100 µM	> 100	40.7 µM	> 100 µM	> 100 µM	–	–	–	–	–	–	–	–	–
CN(C)c1ccc(-c2nc(-c3cc4c(ccc5ccccc54)oc3=O)cs2)cc1	> 100 µM	> 100 µM	> 100 µM	> 100 µM	> 100 µM	> 100 µM	> 100	> 100 µM	> 100 µM	> 100 µM	–	–	–	–	–	–	–	–	–
Oc1ccc2ccccc2c1-c1nnc(CCCCCCCCc2nnc(-c3c(O)ccc4ccccc34)o2)o1	25 µM and > 100 µM	5.82 µM and 24.2 µM	> 37.2 µM	25 µM and > 43.2 µM	25 µM and > 100 µM	–	–	25 µM and > 63.8 µM	8.94 µM and 30.9 µM	25 µM and > 55.3 µM	1.53 µM	–	3.56 µM	0.36 µM	17.2 µM	0.437	0.317	1.28	–
CC(=O)N(C(C)=O)n1c(Cc2ccc(Cl)cc2)nn(C(C)=O)c1=O	> 100 µM	> 100 µM	> 100 µM	> 100 µM	> 100 µM	> 100 µM	> 100	> 100 µM	> 100 µM	> 100 µM	–	–	–	–	–	–	–	–	–
CC1(C)OC[C@@H](/C=C\CCO[Si](c2ccccc2)(c2ccccc2)C(C)(C)C)N1C(=O)c1ccccc1	28.6 µM	18.8 µM	24.4 µM	> 100 µM	23.2 µM	> 100 µM	17.3	45.5 µM	28 µM	> 100 µM	–	–	–	–	–	–	–	–	–
CCCCCCCCCCCCCCCCP(=O)(O)OP(=O)(O)OCC1OC(n2ccc(N)nc2=O)C(O)C1O (stereo unspecified)	> 100 µM	> 100 µM	> 100 µM	> 100 µM and 59 µM	> 100 µM	> 100 µM and 51.3 µM	> 100	> 100 µM and 38 µM	> 100 µM and 27.6 µM	> 100 µM and 37.1 µM	> 100 µM and 24.6 µM	> 100 µM and 14.4 µM	> 100 µM and 35.1 µM	> 100 µM and 19.9 µM	43.1 µM and 13.5 µM	–	–	–	> 100 µM and 11.4 µM
CC(=O)N[C@@H](Cc1ccc(O)cn1)C(=O)NCc1ccc2c(c1)OCO2	> 100 µM	> 100 µM	> 100 µM	> 100 µM	> 100 µM	> 100 µM	> 100	> 100 µM	> 100 µM	> 100 µM	–	–	–	–	–	–	–	–	–

SMILES	TGI (LOX IMVI melanoma)	TGI (NCI-H522 lung)	TGI (MCF7 breast)	TGI (SW-620 colon)	TGI (RPMI-8226 leukemia)	TGI (OVCAR-8 ovarian)	TGI (HT29 colon) [µM]	TGI (U251 CNS)	TGI (786-0 renal)	TGI (ACHN renal)	GI50 (NCI-H522 lung)	GI50 (SW-620 colon)	GI50 (RPMI-8226 leukemia)	GI50 (HT29 colon)	GI50 (U251 CNS)	GI50 (LOX IMVI melanoma) [µM]	GI50 (OVCAR-8 ovarian) [µM]	GI50 (ACHN renal) [µM]	GI50 (MCF7 breast)
C/C(=N\N=C(N)N)c1c(C(=O)OCCCCCCOC(=O)c2nc3sccn3c2/C(C)=N/N=C(N)N)nc2sccn12	> 100 µM	> 100 µM	> 100 µM	> 100 µM	> 100 µM	> 100 µM	> 100	> 100 µM	> 100 µM	> 100 µM	–	–	–	–	–	–	–	–	–
O=C(Cc1nc2ccc(C(=O)c3ccccc3)cc2[nH]c1=O)C(=O)Nc1ccccc1[N+](=O)[O-]	> 100 µM	> 100 µM	> 100 µM	> 100 µM	> 100 µM	> 100 µM	> 100	> 100 µM	> 100 µM	> 100 µM	–	–	–	–	–	–	–	–	–
C=CCc1c(O)c2ccccc2[nH]c1=O	> 100 µM	> 100 µM	> 100 µM	> 100 µM	> 100 µM	> 100 µM	> 100	> 100 µM	> 100 µM	> 100 µM	–	–	–	–	–	–	–	–	–
O=c1oc2ccccc2cc1-c1nc2ccc([N+](=O)[O-])cc2o1	> 100 µM	> 100 µM	> 100 µM	> 100 µM	> 100 µM	> 100 µM	> 100	> 100 µM	> 100 µM	80.9 µM	–	–	–	–	–	–	–	–	–
O=C1c2cc3c(cc2CC12Cc1cc4c(cc1C2)CCC4)CCC3	> 100 µM	> 100 µM	> 100 µM	> 100 µM	> 100 µM	> 100 µM	> 100	> 100 µM	> 100 µM	> 100 µM	–	–	–	–	–	–	–	–	–
c1ccc2c(c1)CC1c3[nH]c4ccccc4c3CCN21 (stereo unspecified)	> 10 µM	> 10 µM	> 10 µM	> 10 µM	> 10 µM	> 10 µM	> 10	> 10 µM	> 10 µM	> 10 µM	–	–	–	–	–	–	–	–	–
COc1ccc(C2CC(c3c(C)nn(-c4ccccc4)c3-c3ccc(C)cc3O)=NN2c2ccccc2)cc1 (stereo unspecified)	> 100 µM	> 100 µM	> 100 µM	> 100 µM	> 100 µM	> 100 µM	> 44	> 100 µM	> 100 µM	> 67.4 µM	–	–	–	–	–	–	–	–	–
O=C1c2cc(Cl)ccc2-n2c(noc2=O)C2CSCN12 (stereo unspecified)	> 100 µM	> 100 µM	> 100 µM	> 100 µM	> 100 µM	> 100 µM	> 100	> 100 µM	> 100 µM	> 100 µM	–	–	–	–	–	–	–	–	–
CCOC(=O)c1c2c(n(C)c1-c1ccccc1)C(=O)C(C)=CC2=O	13.2 µM	5.83 µM	6.01 µM	19.8 µM	4.81 µM	15.4 µM	35.1	22.8 µM	32.1 µM	20.7 µM	–	–	–	–	–	–	–	–	–
CC1CN=C(c2cccc(OCc3ccc(COc4cccc(C5=NCC(C)N5)c4)cc3)c2)N1 (stereo unspecified)	62.1 µM	> 100 µM	> 100 µM	> 100 µM	45.4 µM	> 100 µM	> 100	> 100 µM	> 100 µM	> 100 µM	–	–	–	–	–	–	–	–	–
CCOC(=O)C1C/C(C)=C(/C)SCCCS1 (stereo unspecified)	> 100 µM	41.5 µM	> 100 µM	> 100 µM	> 100 µM	> 100 µM	> 100	> 100 µM	> 100 µM	> 100 µM	–	–	–	–	–	–	–	–	–
CC1=NN(c2ccc(C)cc2)C2(C1)SCC(=O)N2c1nc2ccccc2s1 (stereo unspecified)	76.2 µM	52.6 µM	48.8 µM	> 100 µM	50.1 µM	> 100 µM	> 100	65.5 µM	71 µM	> 100 µM	–	–	–	–	–	–	–	–	–
O=C1CSC2(CC(/C=C/C=C/c3ccccc3)=NN2c2cccc(S(=O)(=O)O)c2)N1c1nc2ccccc2s1 (stereo unspecified)	42.2 µM	> 100 µM	> 100 µM	> 100 µM	55 µM	> 100 µM	> 100	74.4 µM	> 100 µM	> 100 µM	–	–	–	–	–	–	–	–	–
Cc1cs/c(=N\C(P(=O)(O)O)P(=O)(O)O)n1C	> 100 µM	> 100 µM	> 100 µM	> 100 µM	> 100 µM	> 100 µM	> 100	> 100 µM	> 100 µM	> 100 µM	–	–	–	–	–	–	–	–	–
O=C1/C(=C/c2cccc(Oc3ccccc3)c2)N=C(c2ccccc2)N1c1nc2ccc(Sc3ccccc3)cc2[nH]1	> 100 µM	65.8 µM	> 100 µM	> 100 µM	56.5 µM	> 100 µM	63.2	> 100 µM	> 100 µM	> 100 µM	–	–	–	–	–	–	–	–	–
CN(C)CCCn1c2ccccc2c2cnccc21	52.6 µM	> 100 µM	> 100 µM	> 100 µM	71.6 µM	> 100 µM	> 100	> 100 µM	> 100 µM	> 100 µM	–	–	–	–	–	–	–	–	–
